For experiment [1], the target named is T1, Somatostatin receptor type 4 (Homo sapiens, UniProt P31391). As to the kind of experiment: Inhibition of human somatostatin receptor type 4.
In experiment [2] the target is T1, Somatostatin receptor type 4. Nature of the experiment: Inhibition of human somatostatin receptor type 4 (n=5).
Experiment [3] concerns the target T2, Somatostatin receptor type 2 (Homo sapiens, UniProt P30874). As to the kind of experiment: Inhibition of human somatostatin receptor type 2 (n=6).
The target in experiment [4] is T2, Somatostatin receptor type 2. As to the kind of experiment: Inhibition of human somatostatin receptor type 2.

Bridge positions count the residues as written; N and C are the ends. Peptide text beside a SMILES is read from it. A value given as a limit tells only on which side of the number the result lay.

T2 sequence (P30874 whole entry): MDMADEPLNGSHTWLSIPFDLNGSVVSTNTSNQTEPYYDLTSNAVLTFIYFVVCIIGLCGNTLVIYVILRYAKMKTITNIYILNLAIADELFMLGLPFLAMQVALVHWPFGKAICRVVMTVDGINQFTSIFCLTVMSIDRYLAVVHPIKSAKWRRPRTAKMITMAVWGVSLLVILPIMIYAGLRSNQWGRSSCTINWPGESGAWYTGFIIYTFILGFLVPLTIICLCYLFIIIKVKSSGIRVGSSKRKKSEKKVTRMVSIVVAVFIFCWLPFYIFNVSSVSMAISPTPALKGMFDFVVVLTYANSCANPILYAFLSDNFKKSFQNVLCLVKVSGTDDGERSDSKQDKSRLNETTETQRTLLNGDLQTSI
T1 sequence (P31391 whole entry): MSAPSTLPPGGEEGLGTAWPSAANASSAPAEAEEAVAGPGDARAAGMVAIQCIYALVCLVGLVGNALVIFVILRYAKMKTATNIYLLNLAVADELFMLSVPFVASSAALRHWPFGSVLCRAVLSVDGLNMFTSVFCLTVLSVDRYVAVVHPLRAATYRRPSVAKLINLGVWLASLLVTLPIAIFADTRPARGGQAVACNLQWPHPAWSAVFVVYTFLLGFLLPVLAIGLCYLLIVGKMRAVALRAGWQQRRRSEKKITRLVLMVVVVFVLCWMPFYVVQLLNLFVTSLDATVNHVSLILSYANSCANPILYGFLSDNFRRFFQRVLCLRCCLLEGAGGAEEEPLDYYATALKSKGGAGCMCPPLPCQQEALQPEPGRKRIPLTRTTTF

As to `C[C@H](N)C(=O)NCC(=O)N[C@H]1CSSC[C@@H](C(=O)O)NC(=O)[C@H](CO)NC(=O)[C@H]([C@@H](C)O)NC(=O)[C@H](Cc2ccccc2)NC(=O)[C@H]([C@@H](C)O)NC(=O)[C@H](CCCCN)NC(=O)[C@@H](Cc2c[nH]c3ccccc23)NC(=O)[C@H](Cc2ccccc2)NC(=O)[C@H](Cc2cnccn2)NC(=O)[C@H](CC(N)=O)NC(=O)[C@H](CCCCN)NC1=O`, the Ki in experiment [1] was found to be 60 nM; in experiment [2] it was 77 nM; in experiment [3], 7 nM; in experiment [4] it was 1 nM.

For the molecule `C[C@H](N)C(=O)NCC(=O)N[C@H]1CSSC[C@@H](C(=O)O)NC(=O)[C@H](CO)NC(=O)[C@H]([C@@H](C)O)NC(=O)[C@H](Cc2ccccc2)NC(=O)[C@H]([C@@H](C)O)NC(=O)[C@H](CCCCN)NC(=O)[C@@H](Cc2c[nH]c3ccccc23)NC(=O)[C@H](Cc2cnccn2)NC(=O)[C@H](Cc2ccccc2)NC(=O)[C@H](CC(N)=O)NC(=O)[C@H](CCCCN)NC1=O`, the Ki in experiment [1] is 700 nM; in experiment [4], greater than 1000 nM.

On to `C[C@H](N)C(=O)NCC(=O)N[C@H]1CSSC[C@@H](C(=O)O)NC(=O)[C@H](CO)NC(=O)[C@H]([C@@H](C)O)NC(=O)[C@H](Cc2cnccn2)NC(=O)[C@H]([C@@H](C)O)NC(=O)[C@H](CCCCN)NC(=O)[C@@H](Cc2c[nH]c3ccccc23)NC(=O)[C@H](Cc2ccccc2)NC(=O)[C@H](Cc2ccccc2)NC(=O)[C@H](CC(N)=O)NC(=O)[C@H](CCCCN)NC1=O`, for which the Ki came out at 124 nM in experiment [1] and 1 nM in experiment [4].

Molecule `C[C@H](N)C(=O)NCC(=O)N[C@H]1CSSC[C@@H](C(N)=O)NC(=O)[C@H](CO)NC(=O)[C@H]([C@@H](C)O)NC(=O)[C@H](Cc2ccccc2)NC(=O)[C@H]([C@@H](C)O)NC(=O)[C@H](CCCCN)NC(=O)[C@H](Cc2c[nH]c3ccccc23)NC(=O)[C@H](Cc2ccccc2)NC(=O)[C@H](C)NC(=O)[C@H](CC(N)=O)NC(=O)[C@H](CCCCN)NC1=O` (H-AGCKNAFWKTFTSC-NH2; disulfide 3-14) displayed a Ki in experiment [1] of 80 nM.

Molecule `C[C@H](N)C(=O)NCC(=O)N[C@H]1CSSC[C@@H](C(N)=O)NC(=O)[C@H](CO)NC(=O)[C@H]([C@@H](C)O)NC(=O)[C@H](C)NC(=O)[C@H]([C@@H](C)O)NC(=O)[C@H](CCCCN)NC(=O)[C@H](Cc2c[nH]c3ccccc23)NC(=O)[C@H](Cc2ccccc2)NC(=O)[C@H](Cc2ccccc2)NC(=O)[C@H](CC(N)=O)NC(=O)[C@H](CCCCN)NC1=O` (H-AGCKNFFWKTATSC-NH2; disulfide 3-14) yielded a Ki in experiment [1] of less than 1 nM.

For the origin of these results see ChEMBL document CHEMBL1139540, “Replacement of Phe6, Phe7, and Phe11 of D-Trp8-somatostatin-14 with L-pyrazinylalanine. Predicted and observed effects on binding affinities at hSST2 and hSST4. An unexpected effect of the chirality of Trp8 on NMR spectra in methanol” (J Med Chem, 2005).
